Data from patent US8580788B2, “Opioid antagonists” (Adolor Corporation, priority 2005, dated 2013).

Columns and labels:
[1] = target: T1, cloned human μ opioid receptor (Homo sapiens (Human), UniProt P35372); assay: [3H]diprenorphine receptor binding, μ opioid receptor; conditions: inhibition of [3H]diprenorphine binding; Cheng-Prusoff correction of IC50
Method: (§1) IC50 values were obtained by nonlinear analysis of the data using GraphPad Prism version 3.00 for Windows (GraphPad Software, San Diego). Ki values were obtained by Cheng-Prusoff corrections of IC50 values.
(§2) The receptor binding method (DeHaven and DeHaven-Hudkins, 1998) was a modification of the method of Raynor et al. (1994). After dilution in buffer A and homogenization as before, membrane proteins (10-80 μg) in 250 μL were added to mixtures containing test compound and [^3H]diprenorphine (0.5 to 1.0 nM, 40,000 to 50,000 dpm) in 250 μL of buffer A in 96-well deep-well polystyrene titer plates (Beckman). After incubation at room temperature for one hour, the samples were filtered through GF/B filters that had been presoaked in a solution of 0.5% (w/v) polyethylenimine and 0.1% (w/v) bovine serum albumin in water. The filters were rinsed 4 times with 1 mL of cold 50 mM Tris HCl, pH 7.8 and radioactivity remaining on the filters determined by scintillation spectroscopy. Nonspecific binding was determined by the minimum values of the titration curves and was confirmed by separate assay wells containing 10 μM naloxone.
(§3) To determine the equilibrium dissociation constant for the inhibitors (Ki), radioligand bound (cpm) in the presence of various concentrations of test compounds was measured. The concentration to give half-maximal inhibition (EC50) of radioligand binding was determined from a best nonlinear regression fit to the following equation,
(§4) [formula] where Y is the amount of radioligand bound at each concentration of test compound, Bottom is the calculated amount of radioligand bound in the presence of an infinite concentration of test compound, Top is the calculated amount of radioligand bound in the absence of test compound, X is the logarithm of the concentration of test compound, and LogEC50 is the log of the concentration of test compound where the amount of radioligand bound is half-way between Top and Bottom. The nonlinear regression fit was performed using the program Prism® (GraphPad Software, San Diego, Calif.). The Ki values were then determined from the EC50 values by the following equation,
(§5) [formula] where [ligand] is the concentration of radioligand and Kd is the equilibrium dissociation constant for the radioligand.

[2] = target: cloned human δ opioid receptor (Homo sapiens (Human), UniProt P41143); assay: [3H]diprenorphine receptor binding, δ opioid receptor; conditions: inhibition of [3H]diprenorphine binding; Cheng-Prusoff correction of IC50
Method: as §1, §2, §3, §4, §5

[3] = target: cloned human κ opioid receptor (Homo sapiens (Human), UniProt P41145); assay: [3H]diprenorphine receptor binding, κ opioid receptor; conditions: inhibition of [3H]diprenorphine binding; Cheng-Prusoff correction of IC50
Method: as §1, §2, §3, §4, §5

[4] = target: T1, cloned human μ opioid receptor; assay: inhibition of agonist-stimulated [35S]GTPγS binding (in vitro antagonist activity), μ opioid receptor; assay type: biochemical; conditions: inhibition of loperamide (EC80)-stimulated [35S]GTPγS binding to membranes
Method: The potencies of the antagonists were assessed by their abilities to inhibit agonist-stimulated [^35S]GTPγS binding to membranes containing the cloned human μ, κ, or δ opioid receptors. The agonists used were loperamide for the μ opioid receptor.
To determine the IC50 value, which was the concentration to give half-maximal inhibition of agonist-stimulated [^35S]GTPγS binding, the amount of [^35S]GTPγS bound in the presence of a fixed concentration of agonist and various concentrations of antagonist was measured. The fixed concentration of agonist was the EC80 for the agonist, which was the concentration to give 80% of the relative maximum stimulation of [^35S]GTPγS binding. The IC50 value was determined from a best nonlinear regression fit of the data to the following equation,
[formula] where Y is the amount of [^35S]GTPγS bound at each concentration of antagonist, Bottom is the calculated amount of [^35S]GTPγS bound in the presence of an infinite concentration of antagonist, Top is the calculated amount of [^35S]GTPγS bound in the absence of added antagonist, X is the logarithm of the concentration of antagonist, and LogIC50 is the logarithm of the concentration of antagonist where the amount of [^35S]GTPγS bound is halfway between Bottom and Top. The nonlinear regression fit was performed using GraphPad Prism® version 3.00 for Windows (GraphPad Software, San Diego, Calif.).

Sequence of cloned human κ opioid receptor (P41145 whole entry): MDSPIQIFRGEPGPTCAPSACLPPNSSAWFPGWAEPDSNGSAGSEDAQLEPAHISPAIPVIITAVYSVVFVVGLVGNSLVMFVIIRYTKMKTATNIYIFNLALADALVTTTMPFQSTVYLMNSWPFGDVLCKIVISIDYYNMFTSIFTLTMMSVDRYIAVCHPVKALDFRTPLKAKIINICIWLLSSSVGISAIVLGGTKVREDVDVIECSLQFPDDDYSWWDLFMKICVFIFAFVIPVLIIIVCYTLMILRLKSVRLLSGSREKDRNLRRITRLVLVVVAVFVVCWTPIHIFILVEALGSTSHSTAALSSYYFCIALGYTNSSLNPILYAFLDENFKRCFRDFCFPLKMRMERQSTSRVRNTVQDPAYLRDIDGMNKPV
Sequence of cloned human δ opioid receptor (P41143 whole entry): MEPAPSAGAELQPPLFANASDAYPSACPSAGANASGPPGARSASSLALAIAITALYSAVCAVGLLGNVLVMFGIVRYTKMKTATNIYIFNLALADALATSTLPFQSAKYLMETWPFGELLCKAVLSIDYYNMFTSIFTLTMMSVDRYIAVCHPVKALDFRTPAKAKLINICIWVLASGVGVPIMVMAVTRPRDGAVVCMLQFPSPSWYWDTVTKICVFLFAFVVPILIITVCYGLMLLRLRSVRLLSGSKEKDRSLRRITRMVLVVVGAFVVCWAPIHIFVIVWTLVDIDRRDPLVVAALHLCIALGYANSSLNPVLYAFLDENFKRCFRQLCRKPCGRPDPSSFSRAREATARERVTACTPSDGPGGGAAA
T1 sequence (P35372 whole entry): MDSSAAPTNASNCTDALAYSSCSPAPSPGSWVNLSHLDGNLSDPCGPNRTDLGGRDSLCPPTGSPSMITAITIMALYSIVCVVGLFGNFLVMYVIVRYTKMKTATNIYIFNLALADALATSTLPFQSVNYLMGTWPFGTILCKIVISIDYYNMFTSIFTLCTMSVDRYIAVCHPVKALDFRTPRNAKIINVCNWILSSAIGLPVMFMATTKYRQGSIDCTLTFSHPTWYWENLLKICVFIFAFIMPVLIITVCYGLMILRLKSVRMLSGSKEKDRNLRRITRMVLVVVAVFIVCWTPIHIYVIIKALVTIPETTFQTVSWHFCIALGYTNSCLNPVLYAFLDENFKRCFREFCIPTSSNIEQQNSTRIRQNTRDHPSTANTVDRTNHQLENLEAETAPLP

SMILES	Ki [1] [µM]	Ki [2] [µM]	Ki [3] [µM]	IC50 [4] [µM]
C[C@H]1CN2CCN(Cc3ccccc3)C[C@H]2C[C@@]1(C)c1cccc(O)c1 [Example 2D, 3-((7R,8R,9αR)-2-benzyl-7,8-dimethyl-octahydro-1H-pyrido[1,2-α]pyrazin-8-yl)phenol]	0.0011	0.139	0.044	0.011
C[C@H]1CN2CCN(CCc3ccccc3)C[C@H]2C[C@@]1(C)c1cccc(O)c1 [Example 2B, 3-((7R,8R,9αR)-7,8-dimethyl-2-phenethyl-octahydro-1H-pyrido[1,2-α]pyrazin-8-yl)phenol]	–	0.242	0.112	0.021
C[C@H]1CN2C[C@H](c3ccccc3)N(C)C[C@H]2C[C@@]1(C)c1cccc(O)c1 [Example 3B, 3-((3S,7R,8R,9αR)-2,7,8-trimethyl-3-phenyl-octahydro-1H-pyrido[1,2-α]pyrazin-8-yl)phenol]	0.0033	0.716	0.012	0.026
C[C@H]1CN2C[C@H](c3ccccc3)NC[C@H]2C[C@@]1(C)c1cccc(O)c1 [Example 3A, 3-((3S,7R,8R,9αR)-7,8-dimethyl-3-phenyl-octahydro-1H-pyrido[1,2-α]pyrazin-8-yl)phenol]	0.0036	0.088	0.018	0.012
C[C@H]1CN2CCN(C(=O)c3ccccc3)C[C@H]2C[C@@]1(C)c1cccc(O)c1 [Example 2C, ((7R,8R,9αR)-8-(3-hydroxyphenyl)-7,8-dimethyl-hexahydro-1H-pyrido[1,2-α]pyrazin-2(6H)-yl)(phenyl)methanone]	0.002	0.025	0.19	0.021
C[C@H]1CN2C[C@H](c3ccccc3)CC[C@H]2C[C@@]1(C)c1cccc(O)c1 [Example 1, 3-((2R,3R,7S,9αS)-2,3-dimethyl-7-phenyl-octahydro-1H-quinolizin-2-yl)phenol]	0.00057	0.03	0.0089	0.00053
C[C@H]1CN2C[C@H](Cc3ccccc3)NC[C@H]2C[C@@]1(C)c1cccc(O)c1 [Example 4, 3-((3S,7R,8R,9αR)-3-benzyl-7,8-dimethyl-octahydro-1H-pyrido[1,2-α]pyrazin-8-yl)phenol]	0.0089	0.036	0.085	0.029
